# Laboratory results reported in US20220313697A1, “NEK6 Inhibition to Treat ALS and FTD” (VIB VZW, priority 2021, published 2022).
# Ends that are not written are not given here.
# Legend:
# [1] = system: iCas9-iPSC DIV80 neuronal progeny; type: cell-based; settings: human
# Description: Next, the iCas9-iPSC derived DIV79 neurons were treated with PR20 peptides to mimic DPR toxicity (Cheng et al 2019 Neuron 72:1-14; Kramer et al 2018 Nat Genet 50:603-612).
# To validate results from the screen, iCas9-NPCs were individually transduced with sgRNAs directed against the top 3 candidate genes, CRKL, SNRK and NEK6, that enhanced survival in the interference screen. A 50-60% reduction in protein levels of CRKL, SNRK and NEK6 was observed after doxycycline treatment (FIG. 5). […] A more pronounced effect could be observed using sgRNAs against NEK6 and SNRK.
# Resazurin (R7017, Sigma) was added to the cells in neuron maintenance medium (NMM) at a concentration of 1 μg/ml. Cells were incubated for 1 h in 37° C. with 5% CO2. […] was evaluated using 540 nm excitation and 590 nm emission settings.
# [2] = system: hiPSC-derived cortical neurons treated with PR20; assay: Axonal transport analysis (mitochondrial transport, MitoTracker-Red) in PR20-treated neurons; type: cell-based, human; settings: for axonal transport defects observed upon PR-treatment: 200 nm I-3 or 300 nm I-18, added 3 days before and together with PR20; for number of moving mitochondria / ratio of moving mitochondria to total amount of mitochondria: 200 nm I-3 or 300 nm I-18, vs PR-treatment alone
# Description: Axonal transport defects are an early event in the pathogenesis of ALS (Guo et al 2019 Semin Cell Dev Biol 99:133-150). To assess whether axonal transport defects also occur in cortical neurons from healthy donor hiPSC-cortical neurons treated with PR20 and from C9orf72 patient-derived cortical neurons, mitochondrial transport studies were performed.
# To test whether chemical inhibition of NEK6 could be used as a treatment of DPR toxicity as well, the recently described NEK6 inhibitor ZINC05007751 was tested. iCas9-hiPSC derived cortical neurons (cultured for 70-80 days) were treated with 1.75 μM to 14 μM of the inhibitor at dayl and at day 3. The cells were subjected to a PR20 treatment (1.5 μM) at day 3 together with the compound. Axonal transport measurements were performed at day 4.
# The same experiments are performed with the NEK6 inhibitors ZINC05007751 and with the NEK6 inhibitors described in WO2019126696A1.
# DIV79-DIV84 iPSC-derived cortical neurons were loaded with MitoTracker-Red (50 nM, Invitrogen), washed and left to equilibrate (20 min) in NMM, before transferring them to a HEPES buffered salt solution (pH 7.4, 150 mM NaCl, 5 mM KCl, 1 mM MgCl2, 2 mM CaCl2, 10 mM glucose, 10 mM HEPES). Measurements were performed on an inverted Zeiss Axiovert 200M microscope (Carl Zeiss) with a 40× water immersion lens. Neurons were selected under differential interference optics (DIC) based on typical morphology consisting of a soma and long-extended neurites. MitoTracker-RED was excited at 580 nm, using a TILL Poly V light source (TILL Photonics) and image sequences were recorded (200 images at 1 Hz) onto a cooled CCD camera (PCO Sensicam-QE) using TillVisION (TILL Photonics) software. A heated gravityfed perfusion system was used to keep cells at 36±0.5° C. during the recordings. All image analysis was performed in Igor Pro (Wavemetrics) using custom written routines based on a previously described analysis algorithm (Vanden Berghe 2004 Am. J. Physiol. Gastrointest. Liver Physiol. 286, G671-G682). In brief, kymographs or spatio-temporal maps were constructed for each of the neuronal processes. In these maps, stationary mitochondria appear as vertical lines and moving mitochondria generate tilted lines. Proportions of moving and stationary mitochondria were extracted from the maps by marking and analyzing the properties of each of the mitochondrial trajectories.
# poly(PR) zebrafish model = poly(PR) zebrafish model of motor axonopathy; type: in vivo
# Description: Therefore, a morpholino-mediated NEK6 knockdown was performed in a poly(PR) zebrafish model as described in Swinnen et al (2018 Acta Neuropathol doi:10.1007/s00401-017-1796-5). In this model, micro-injection of poly(PR) encoding mRNA results in a motor axonopathy in zebrafish embryos, characterised by reduced axonal lengths and aberrant axonal branching (Swinnen et al 2018 Acta Neuropathol doi:10.1007/s00401-017-1796-5).
# Zebrafish work was performed as previously described in Swinnen et al (2018 Acta Neuropathol 135, 427-443). Zebrafish oocytes were injected at one-cell stage with the indicated amounts of the morpholinos. The splice-blocking morpholino against Danio rerio nek6 (transcript ENSDART00000132599.2; morpholino sequence 5′-[…]-3′) and the standard control oligo (morpholino sequence 5′-[…]-3′) were designed and generated by Gene Tools (Philomath, USA). Injected oocytes were incubated at 28° C. After 24 hpf, the embryos were dechorionated by using a forceps. Only morphologically normal embryos were selected for downstream experiments. At 30 hpf, the selected fish were deyolked and subsequently fixed overnight at 4° C. in 4% formaldehyde in lx PBS. Fish were permeabilized with acetone for 1 h at −20° C., blocked with 1% BSA/1% DMSO/PBS for 1 h at room temperature and immune-stained with mouse anti-SV2 primary antibody followed by secondary antibody. For phenotyping, 15 consecutive embryos per condition were analyzed with imaging (Leica DM 3000 LED microscope; DMK 33UX250 USB3.0 monochrome industrial camera, The Imaging Source, Bremen, Germany) and the Lucia software (version 4.60, Laboratory Imaging, Prague, Czech Republic) by a blinded observer. For the axonal length, a standardized method was used; five predefined and consecutive motor axons (i.e. the 8th up to the 12th axon on one side) were measured in all 15 embryos. Data for axonal length were normalized to the control condition. For the abnormal branching, a predefined set of 20 consecutive motor axons (i.e. the 8th up to the 17th axon on both sides) in the same 15 embryos were analyzed visually. […]
# [3] = co-injection of poly(PR) mRNA with 0.5 mM morpholino, 30 hpf
molecule,measurement,setting,value
PRPRPRPRPRPRPRPRPRPRPRPRPRPRPRPRPRPRPRPR [PR20],"neuronal progeny died (dose-response, cell viability)",[1],70-80%
same,axonal transport,"[2]; 1.5 μM PR20, normal donor iPSC-DIV79 cortical neurons",significantly decreased
CCOc1cc(N2CCC(O)CC2)ccc1Nc1ncc2c(n1)n1c(cc3ccccc31)c(=O)n2C [Compound I-18],axonal transport defects observed upon PR-treatment,[2],statistically significantly rescues
same,number of moving mitochondria,[2],statistically significantly improved
same,ratio of moving mitochondria to total amount of mitochondria,[2],statistically significantly improved
same,number of total mitochondria,"[2]; 300 nm I-18, vs PR-treatment alone",statistically significantly increased
COc1cc(N2CCN(C)CC2)ccc1Nc1ncc2c(n1)n1c(cc3ccccc31)c(=O)n2C [Compound I-3],axonal transport defects observed upon PR-treatment,[2],statistically significantly rescues
same,number of moving mitochondria,[2],statistically significantly improved
same,ratio of moving mitochondria to total amount of mitochondria,[2],statistically significantly improved
CC1=C(C#N)C(O)=NC(=O)/C1=C\c1ccc(-c2ccccc2)o1 [ZINC05007751],axonal transport defects induced by PR20,"[2]; 1.75 μM to 14 μM inhibitor at day 1 and day 3, PR20 1.5 μM at day 3, measured at day 4",overruled the axonal transport defects
5′-ATGTTAGAAAGTGTACCTCGATGCA-3′ (all phosphorodiamidate morpholino (PMO)) [Nek6 morpholino],poly(PR)-induced axonal phenotype,poly(PR) zebrafish model; co-injection of poly(PR) mRNA with 0.5 mM morpholino in oocytes,significantly prevented
same,aberrant axonal branching,poly(PR) zebrafish model; [3],less aberrantly branched axons
same,axonal length,poly(PR) zebrafish model; [3],partial normalization
